Literature values in US8926994B2, “Mesoporous silicon particles for the presentation of tumor antigens and adjuvant for anti-cancer immunity” (The Methodist Hospital Research Institute, priority 2011, dated 2015).

Test system: endothelial cells

Compound: N.N.[Cl][Pt][Cl] [cis-platin]
- relative cell cycle composition / mitosis (propidium iodide DNA content) (12 and 24 hr, 10:1 microparticles:cell): inhibited cellular mitosis
- apoptotic volume (cell death) (flow cytometry): major accumulation of cell fragments
